pIC50: −log10 of the molar value.

We go through 35 compounds from patent US11839613B2, “Pyrimidine derivatives as PGE2 receptor modulators” (IDORSIA PHARMACEUTICALS LTD, priority 2017, dated 2023).

One experiment concerns the target PTGER2 (EP2) (Homo sapiens (Human), UniProt P43116). Description: hEP2 b-arrestin assay (PathHunter HEK 293 PTGER2 b-arrestin cells). The conditions noted are these: antagonistic activity, beta-arrestin assay; read-out: hEP2 b-arr IC50. The format is cell-based. The procedure: Plate is pre-incubated 15 minutes at 37° C. Then five microliters of PGE2 (final conc. 5 μM) are transferred into the assay plate. Plate is incubated 120 minutes at 37° C.
(each concentration is measured in duplicate)

Another experiment addresses EP2 (Homo sapiens (Human), UniProt P43116). Description: hEP2 cAMP assay (SF295 glioblastoma cells, HTRF cAMP). To be noted: antagonistic activity. Format: cell-based. In outline:
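PGE2-driven cAMP accumulation was measured by HTRF in SF295 cells, which express endogenous EP2 only. Cells in assay buffer with 2 mM IBMX were pre-incubated 45 min at RT, then incubated 30 min at RT. Detection used competition between cellular cAMP and d2-cAMP for a cryptate anti-cAMP antibody.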

The target in a further experiment is EP4 (Homo sapiens (Human), UniProt P35408). Description: hEP4 cAMP assay (BT549 breast cancer cells, HTRF cAMP). The format is cell-based. To be noted: antagonistic activity, PGE2 6 nM. In a few lines:
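BT549 breast cancer cells (endogenous EP4) in HBSS/20 mM HEPES/0.2% BSA/2 mM IBMX preincubated 45 min at RT with compound, then stimulated 30 min at RT with 6 nM PGE2 (final). cAMP read by competitive HTRF immunoassay, signal inversely proportional to cAMP.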

The next experiment deals with PTGER4 (EP4) (Homo sapiens (Human), UniProt P35408).
PTGER4 (EP4), sequence (P35408 whole entry): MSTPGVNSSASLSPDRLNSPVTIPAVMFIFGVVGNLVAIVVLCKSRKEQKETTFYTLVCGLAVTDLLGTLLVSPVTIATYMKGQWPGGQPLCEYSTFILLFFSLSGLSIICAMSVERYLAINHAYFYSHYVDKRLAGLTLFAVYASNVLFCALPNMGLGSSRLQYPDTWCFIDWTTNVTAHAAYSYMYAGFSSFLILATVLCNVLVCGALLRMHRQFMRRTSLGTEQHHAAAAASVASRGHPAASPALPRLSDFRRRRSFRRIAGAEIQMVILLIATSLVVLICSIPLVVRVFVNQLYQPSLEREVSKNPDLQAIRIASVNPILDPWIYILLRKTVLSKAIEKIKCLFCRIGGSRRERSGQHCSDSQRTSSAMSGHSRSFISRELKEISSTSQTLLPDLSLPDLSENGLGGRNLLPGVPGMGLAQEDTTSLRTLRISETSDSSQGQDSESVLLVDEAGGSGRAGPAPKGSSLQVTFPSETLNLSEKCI

PTGER2 (EP2), sequence (P43116 whole entry): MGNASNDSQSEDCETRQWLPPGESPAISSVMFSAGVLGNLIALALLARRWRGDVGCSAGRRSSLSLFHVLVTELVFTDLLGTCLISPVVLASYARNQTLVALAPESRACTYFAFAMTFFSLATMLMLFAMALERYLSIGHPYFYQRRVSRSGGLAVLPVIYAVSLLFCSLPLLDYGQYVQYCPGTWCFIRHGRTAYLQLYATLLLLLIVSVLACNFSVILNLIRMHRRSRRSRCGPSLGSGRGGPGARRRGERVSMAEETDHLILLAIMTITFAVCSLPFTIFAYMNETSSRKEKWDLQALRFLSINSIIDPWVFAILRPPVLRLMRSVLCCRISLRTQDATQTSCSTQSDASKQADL
EP2, sequence (P43116 whole entry): as above
EP4, sequence (P35408 whole entry): as the sequence (P35408 whole entry) above

For the compound `CCOc1cc(-c2cc(NCCc3cc4cccnc4c(C)c3Cl)ncn2)sc1C(=O)O` [Ex 87], the negative logarithm of the IC50 (pIC50) at PTGER2 (EP2) was 6.76; against EP2, 6.87; on EP4, 7.29; against PTGER4 (EP4), 7.07.
On to `CCOc1cc(-c2cc(NCCc3ccc4ncoc4c3)ncn2)sc1C(=O)O` [Ex 146], for which the pIC50 on PTGER2 (EP2) was 6.59; against EP2, 6.94; at EP4, 6.86; against PTGER4 (EP4), 6.44.
Consider `CCOc1cc(-c2cc(NCCc3c(C#N)cc4ccccc4c3C)ncn2)sc1C(=O)O` [Ex 2], for which the negative logarithm of the IC50 (pIC50) on PTGER2 (EP2) was 6.95; on EP2, 7.10; against EP4, 9.00; against PTGER4 (EP4), 8.52.
For `CSc1cc(-c2cc(NCCc3ccc4sccc4c3C)ncn2)ccc1CC(=O)O` [Ex 326] the same measures were 6.90, 6.80, 6.04 and 5.97.
“2-Ethoxy-4-{6-[2-(7-ethynyl-2,3-dihydro-benzo[1,4]dioxin-6-yl)-ethylamino]-pyrimidin-4-yl}-benzoic acid [Example 439]”: the pIC50 is 7.77 on PTGER2 (EP2), 7.48 against EP2, 6.86 against EP4 (BT549 cells) and 6.71 against PTGER4 (EP4).
In the case of `CCOc1cc2ccccc2cc1CCNc1cc(-c2cc(OCC)c(C(=O)O)s2)ncn1` [Ex 23], the negative logarithm of the IC50 (pIC50) is 7.82 on PTGER2 (EP2), 7.72 at EP2, 7.85 on EP4 and 8.52 on PTGER4 (EP4).
Turning to `CSc1cc(-c2cc(NCCc3ccc4cccc(F)c4c3)ncn2)ccc1C(=O)O` [Ex 243], the negative-log IC50 (pIC50) at PTGER2 (EP2) was 6.31; against EP2, 5.68; at EP4 it was 6.45; on PTGER4 (EP4), 6.83.
For `Cc1c(CCNc2cc(-c3ccc(C(=O)O)c(OC4CCC4)c3)ncn2)ccc2sccc12` [Ex 268] the same measures were 7.60, 7.33, 6.47 and 6.16.
As to `CCOc1cc2sccc2cc1CCNc1cc(-c2ccc(C(=O)O)c(OCC)c2)ncn1` [Ex 126], the pIC50 on PTGER2 (EP2) was 8.10; against EP2, 8.22; on EP4, 7.00; against PTGER4 (EP4) it was 7.18.
Consider `CCOc1cc(-c2cc(NCCc3cc4c(cc3C#N)OCCO4)ncn2)sc1C(=O)O` [Ex 6], for which the pIC50 on PTGER2 (EP2) was 7.96; against EP2 it was 7.43; at EP4 it was 8.40; against PTGER4 (EP4), 8.22.
For `CCOc1cc(-c2cc(NCCc3c(C#N)cc4ccccc4c3F)ncn2)ccc1C(=O)O` [Ex 73], in that order: 6.09, 5.75, 7.41 and 7.04.
For `CCOc1cc(-c2cc(NCCc3ccc4sccc4c3C)ncn2)ccc1CC(=O)O` [Ex 289], in that order: 6.84, 6.45, 6.28 and 6.02.
For `COc1cc2ccccc2c(C)c1CCNc1cc(-c2ccc(CC(=O)O)c(SC)c2)ncn1` [Ex 163] the same measures were 7.07, 6.61, 6.80 and 7.01.
With `CCOc1cc(-c2cc(NCCc3ccc4cccc(F)c4c3)ncn2)ccc1C(=O)O` [Ex 269], the negative-log IC50 (pIC50) at PTGER2 (EP2) was 5.79; against EP2 it was 5.19; on EP4, 6.36; on PTGER4 (EP4) it was 6.23.
In the case of `CCOc1cc(-c2cc(NCCc3ccc4cccc(F)c4c3)ncn2)ccc1CC(=O)O` [Ex 314], the negative-log IC50 (pIC50) at PTGER2 (EP2) was 5.46; against EP2 it was 5.03; against EP4, 6.15; against PTGER4 (EP4) it was 6.42.
Take `C#Cc1c(CCNc2cc(-c3cc(OCC)c(C(=O)O)s3)ncn2)ccc2ccccc12` [Ex 17]: the negative logarithm of the IC50 (pIC50) was 6.97 on PTGER2 (EP2), 6.77 against EP2, 8.05 against EP4 and 8.10 on PTGER4 (EP4).
With `COc1cc2sccc2cc1CCNc1cc(-c2ccc(C(=O)O)c(OC3CCC3)c2)ncn1` [Ex 63], the negative logarithm of the IC50 (pIC50) on PTGER2 (EP2) was 7.80; against EP2, 7.92; on EP4, 7.48; against PTGER4 (EP4), 7.30.
Consider `CCOc1cc(-c2cc(NCCc3ccc4ncccc4c3F)ncn2)sc1C(=O)O` [Ex 69], for which the pIC50 at PTGER2 (EP2) is 6.36; at EP2 it was 6.65; against EP4 it was 7.42; against PTGER4 (EP4), 7.23.
For `O=C(O)c1ccc(-c2cc(NCCc3ccc4c(c3)CCS4)ncn2)cc1OC1CCC1` [Ex 170], in that order: 6.62, 7.03, 6.77 and 6.91.
Regarding `CCOc1cc(-c2cc(NCCc3cc4c(cc3OC)OCCO4)ncn2)ccc1OCC(=O)O` [Ex 120], the pIC50 is 6.94 on PTGER2 (EP2), 6.95 on EP2, 7.04 on EP4 and 7.21 against PTGER4 (EP4).
Take `CCOc1cc(-c2cc(NCCc3cc4ccsc4cc3C#N)ncn2)ccc1C(=O)O` [Ex 128]: the negative logarithm of the IC50 (pIC50) at PTGER2 (EP2) is 6.82; against EP2, 7.12; at EP4 it was 6.99; against PTGER4 (EP4), 6.72.
As to `COc1cc2c(cc1CCNc1cc(-c3ccc(C(=O)O)c(CC(C)C)c3)ncn1)OCCO2` [Example 416], the pIC50 on PTGER2 (EP2) was 6.61; against EP2 it was 6.91; against EP4 (BT549 cells), 7.08; on PTGER4 (EP4), 7.09.
With `CCOc1cc(-c2cc(NCCc3cc4ccsc4cc3OC)ncn2)ccc1C(=O)O` [Ex 109], the pIC50 on PTGER2 (EP2) is 7.47; at EP2, 7.92; on EP4, 7.11; against PTGER4 (EP4), 7.00.
For `CSc1cc(-c2cc(NCCc3c(F)cc4ccccc4c3F)ncn2)ccc1CC(=O)O` [Ex 270] the same measures were 5.82, 5.25, 6.36 and 6.39.
Consider `CCOc1cc(-c2cc(NCCc3ccc4scc(C#N)c4c3)ncn2)ccc1C(=O)O` [Ex 253], for which the negative-log IC50 (pIC50) at PTGER2 (EP2) is 6.28; on EP2, 6.80; against EP4, 6.43; at PTGER4 (EP4), 6.17.
For `CCOc1cc(-c2cc(NCCc3ccc4sncc4c3)ncn2)sc1C(=O)O` [Ex 135], in that order: 6.70, 6.77, 6.94 and 6.76.
Consider `COc1cc2ccccc2c(F)c1CCNc1cc(-c2ccc(C(=O)O)c(SC)c2)ncn1` [Ex 29], for which the pIC50 on PTGER2 (EP2) is 7.28; against EP2, 7.28; against EP4, 7.77; against PTGER4 (EP4) it was 7.48.
For the compound `CCOc1cc(-c2cc(NCCc3c(OC)cc4ccccc4c3C)ncn2)ccc1CC(=O)O` [Ex 61], the pIC50 on PTGER2 (EP2) is 6.83; against EP2, 6.67; against EP4, 7.34; against PTGER4 (EP4) it was 7.55.
For `CCOc1cc(-c2cc(NCCc3c(OC)cc4ccccc4c3C)ncn2)sc1C(=O)O` [Ex 1] the same measures were 8.22, 8.10, 9.00 and 8.70.
For `CCOc1cc(-c2cc(NCCc3cc4ccccc4cc3OC(F)F)ncn2)sc1C(=O)O` [Ex 45] the same measures were 6.90, 6.73, 7.68 and 8.30.
For `CCOc1cc(-c2cc(NCCc3cc4cccnc4c(F)c3Cl)ncn2)sc1C(=O)O` [Ex 117] the same measures were 7.28, 7.21, 7.06 and 6.88.
Regarding `CSc1cc(-c2cc(NCCc3cc4ccsc4cc3C)ncn2)ccc1CC(=O)O` [Ex 305], the pIC50 on PTGER2 (EP2) was 7.24; against EP2, 6.63; on EP4, 6.19; at PTGER4 (EP4) it was 5.87.
Take `CCOc1cc(-c2cc(NCCc3ccc4scc(C#N)c4c3)ncn2)sc1C(=O)O` [Ex 27]: the pIC50 at PTGER2 (EP2) was 7.12; on EP2, 7.72; on EP4 it was 7.77; against PTGER4 (EP4), 7.80.
With `CSc1cc(-c2cc(NCCc3cc4ccsc4cc3C#N)ncn2)ccc1C(=O)O` [Ex 77], the pIC50 at PTGER2 (EP2) is 7.33; on EP2, 7.60; on EP4 it was 7.37; at PTGER4 (EP4) it was 6.81.
For `CSc1cc(-c2cc(NCCc3ccc4sccc4c3C)ncn2)ccc1C(=O)O` [Ex 204], in that order: 7.92, 7.54, 6.73 and 6.20.
